Data reported in publication PMC12419465, “Photoresponsive molecular tweezers modulate Taspase 1 activity” (RSC Chemical Biology, 2025).
Read-outs that look alike come from different tables or passages of the source.

Experiments:
[1] = Photoisomerization: photostationary states by 1H NMR, switching cycles by UV-vis; assay type: physicochemical; details: for PSS E→Z, photostationary state: UV 365 nm; for PSS Z→E, photostationary state: green light 520 nm
Protocol: Tweezer constructs were synthesized as an E/Z mixture, with a strong preference for the thermodynamically stable E isomer. For photoisomerization, UV-vis spectra of TWAAP and TWAB (50 μM in water) were recorded in their initial state. The constructs were then isomerized to the Z isomer with UV light (λ = 365 nm, 1 min) and back to the E isomer with green light (λ = 520 nm, 5 min). Two light sources were used: UV LED HighPower-LED with 3 W of λ = 365 nm (LED Engin Inc., San Jose, California, US) and a LSC-G HighPower-LED with 3 W of λ = 520 nm (Cree Inc., Durham, North Carolina, US). UV-vis spectroscopy was routinely employed to analyze the tweezer constructs, serving as the method of choice to monitor configurational integrity after multiple switching cycles. More than 10 switching cycles were performed without any loss of configurational integrity. The UV-vis spectra were recorded with a JASCO V-650 double-beam spectrophotometer (JASCO).
The photophysical properties of AAP tweezers TWAAP0-4 as well as those of AZO tweezers TWAB1-2 were consistent with previous reports on these photoswitches. […] The two isomers are easily distinguished by the significant difference in their absorption bands (Fig. 2 and Fig. S4a, b). […] Irradiation with green light further increases the concentration of the E isomer, as confirmed by both UV/vis and NMR spectra. The switching process can be repeated for over 10 cycles without loss of configurational integrity or photodegradation of the tweezer. […] (Fig. 2 and Table S1).
Supplementary Table S1. Photostationary states (PSSE→Z and PSSZ→E) and half-life of Z isomers of
respectively. n.d., not determinable.
TW construct PSSE→Z [%] PSSZ→E [%] […]

[2] = target: T1, Cy5-labeled Taspase 1 loop (Homo sapiens, UniProt Q9H6P5); experiment: Fluorescence titration of Cy5-labeled Taspase 1 loop; assay type: binding; details: for Kd: 1:1 binding model, n = 3, read-out: KD TW (fluorescence titration, loop)
T1 construct: Cy5-labeled NLS-bearing loop peptide (aa S181-D233); purchased GeneCust; host or cells: synthetic peptide
T1 sequence (Q9H6P5 181-233): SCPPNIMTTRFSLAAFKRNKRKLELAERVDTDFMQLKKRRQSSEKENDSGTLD
Protocol: Fluorescence titration was conducted with a Taspase 1 loop with an N-terminal […] synthesized by GeneCust (Sequence: Cy5-[…]; NLS in bold) as described.[9,10] The fluorescence anisotropy assay was modified based on previously established protocols.[51] Measurements were conducted using an FP-8300 JASCO fluorescence spectrometer (JASCO GmbH). […] Binding curves of the average data were fitted with GraphPad Prism 10.4 (GraphPad) using the quadratic binding equation for one-site specific binding model: [drawing 4] with r = anisotropy, r0 = anisotropy without protein, rmax = maximum anisotropy, F = fluorescent probe (Cy5-labeled peptide) concentration, x = titrant concentration, KD = dissociation constant. All fitting curves have R^2-values between 0.88 and 0.98.
Since Importin binding critically depends on the basic NLS clusters within the Taspase 1 loop, pull-down assays typically provide a reliable readout for tweezer interaction with the relevant lysine and arginine residues. Alternatively, loop binding can be evaluated through ligand titration experiments using a fluorescently labeled Taspase 1 loop (Fig. 5).[10] […] As a result, potential effects related to the orientation of the flexible loop within the context of the globular protein are not captured. Of note, the slight increase in signal at the highest compound concentration likely reflects non-specific effects such as weak autofluorescence, inner filter artifacts, or molecular crowding, highlighting limitations of the assay at this range. Despite these effects, the data points were retained to provide a complete representation of the assay response.
Fig. 5 TWAAP ligands directly address the Taspase 1 loop. Fluorescence titrations were performed using a Cy5-labeled Taspase 1 loop and switchable tweezers. […] Fluorescence intensity in solvent-treated samples was set to 100%, with ligand-treated samples normalized to this value. […] As a control, all ligands were added to Cy5 (without peptide) at their highest concentration, resulting in neglectable changes in fluorescence. Data represent the mean ± SD of three independent experiments. Composed with https://Biorender.com.

Row | Structure (SMILES) | PSS E→Z, photostationary state [1] [%] | PSS Z→E, photostationary state [1] [%] | Kd ([2]; E isomer) [nM] | Kd ([2]; Z isomer) [nM] | Loop binding, in words ([2]; Z isomer)
1 | Cc1nn(-c2ccc(-n3cc(CCOP(=O)(O)Oc4c5c(c(OP(=O)(O)O)c6c4C4CC6c6cc7c(cc64)C4CC7c6ccccc64)C4CC5c5cc6c(cc54)C4CC6c5ccccc54)nn3)cc2)c(C)c1N=Nc1ccc(-n2cc(CCOP(=O)(O)Oc3c4c(c(OP(=O)(O)O)c5c3C3CC5c5cc6c(cc53)C3CC6c5ccccc53)C3CC4c4cc5c(cc43)C3CC5c4ccccc43)nn2)cc1 [TWAAP0] | 87 | 89 | 200 | 300 | –
2 | Cc1nn(Cc2cn(CCOP(=O)(O)Oc3c4c(c(OP(=O)(O)O)c5c3C3CC5c5cc6c(cc53)C3CC6c5ccccc53)C3CC4c4cc5c(cc43)C3CC5c4ccccc43)nn2)c(C)c1N=Nc1ccc(-c2cn(CCOP(=O)(O)Oc3c4c(c(OP(=O)(O)O)c5c3C3CC5c5cc6c(cc53)C3CC6c5ccccc53)C3CC4c4cc5c(cc43)C3CC5c4ccccc43)nn2)cc1 [TWAAP2] | 94 | 77 | 300 | 300 | –
3 | Cc1nn(-c2ccc(-c3cn(CCOP(=O)(O)Oc4c5c(c(OP(=O)(O)O)c6c4C4CC6c6cc7c(cc64)C4CC7c6ccccc64)C4CC5c5cc6c(cc54)C4CC6c5ccccc54)nn3)cc2)c(C)c1N=Nc1ccc(-c2ccc(-c3cn(CCOP(=O)(O)Oc4c5c(c(OP(=O)(O)O)c6c4C4CC6c6cc7c(cc64)C4CC7c6ccccc64)C4CC5c5cc6c(cc54)C4CC6c5ccccc54)nn3)cc2)cc1 [TWAAP3] | 84 | 92 | 400 | 600 | –
4 | Cc1nn(-c2ccc(C#Cc3ccc(-c4cn(CCOP(=O)(O)Oc5c6c(c(OP(=O)(O)O)c7c5C5CC7c7cc8c(cc75)C5CC8c7ccccc75)C5CC6c6cc7c(cc65)C5CC7c6ccccc65)nn4)cc3)cc2)c(C)c1N=Nc1ccc(C#Cc2ccc(-c3cn(CCOP(=O)(O)Oc4c5c(c(OP(=O)(O)O)c6c4C4CC6c6cc7c(cc64)C4CC7c6ccccc64)C4CC5c5cc6c(cc54)C4CC6c5ccccc54)nn3)cc2)cc1 [TWAAP4] | 67 | 97 | 800 | 4900 | only a weak loop binder
5 | O=P(O)(O)Oc1c2c(c(OP(=O)(O)OCCn3cc(-c4ccc(N=Nc5ccc(-c6cn(CCOP(=O)(O)Oc7c8c(c(OP(=O)(O)O)c9c7C7CC9c9cc%10c(cc97)C7CC%10c9ccccc97)C7CC8c8cc9c(cc87)C7CC9c8ccccc87)nn6)cc5)cc4)nn3)c3c1C1CC3c3cc4c(cc31)C1CC4c3ccccc31)C1CC2c2cc3c(cc21)C1CC3c2ccccc21 [TWAB1] | 63 | 61 | – | – | –
